Reference: ChEMBL document CHEMBL2434908, “Synthesis and antibacterial evaluation of 3,3-diindolylmethane derivatives” (Med Chem Res, 2013)
≈ marks a conversion by molar mass, not a printed value.

Experiments:
[1] = system: Shigella flexneri; experiment: Antibacterial activity against Shigella flexneri assessed as growth inhibition by agar plate method; assay type: functional
[2] = system: Rhodococcus; experiment: Antibacterial activity against Rhodococcus Sp. assessed as growth inhibition by agar plate method; assay type: functional
[3] = system: Lactococcus lactis; experiment: Antibacterial activity against Lactococcus lactis assessed as growth inhibition by agar plate method; assay type: functional
[4] = system: Mycolicibacterium smegmatis; experiment: Antibacterial activity against Mycobacterium smegmatis assessed as growth inhibition by agar plate method; assay type: functional
[5] = system: Escherichia coli; experiment: Antibacterial activity against Escherichia coli assessed as growth inhibition by agar plate method; assay type: functional
[6] = system: Staphylococcus aureus; experiment: Antibacterial activity against Staphylococcus aureus assessed as growth inhibition by agar plate method; assay type: functional
[7] = system: Arthrobacter protophormiae; experiment: Antibacterial activity against Arthrobacter protophormiae assessed as growth inhibition by agar plate method; assay type: functional; conditions: Glutamicibacter protophormiae
[8] = system: Pseudomonas aeruginosa; experiment: Antibacterial activity against Pseudomonas aeruginosa assessed as growth inhibition by agar plate method; assay type: functional
[9] = Hemolytic activity in human RBC at 12.5 ug/mL after 1 hr by spectrophotometric analysis relative to control; assay type: ADME, cell-based, Erythrocyte; conditions: human red blood cells, read-out: Activity
[10] = system: Bacillus subtilis; experiment: Antibacterial activity against Bacillus subtilis assessed as growth inhibition by agar plate method; assay type: functional
[11] = system: Proteus mirabilis; experiment: Antibacterial activity against Proteus mirabilis assessed as growth inhibition by agar plate method; assay type: functional
[12] = Hemolytic activity in human RBC up to 200 ug/mL after 1 hr by spectrophotometric analysis relative to control; assay type: ADME, cell-based, Erythrocyte; conditions: human red blood cells, read-out: Activity
[13] = Hemolytic activity in human RBC up to 400 ug/mL after 1 hr by spectrophotometric analysis relative to control; assay type: ADME, cell-based, Erythrocyte

SMILES	MIC [1] [µg/mL]	MIC [2] [µg/mL]	MIC [3] [µg/mL]	MIC [4] [µg/mL]	MIC [5] [µg/mL]	MIC [6] [µg/mL]	MIC [7] [µg/mL]	MIC [8] [µg/mL]	MIC [10] [µg/mL]	MIC [11] [µg/mL]	hemolysis at 1 h, 12.5 ug/mL [9] [%]	hemolysis at 1 h [12] [%]	Activity ([13]; erythrocyte, 1 h)	hemolysis at 1 h ([13]; human red blood cells, read-out: Activity) [%]
c1coc(C(c2c[nH]c3ccccc23)c2c[nH]c3ccccc23)c1	31.2 (≈ 99.9 µM)	31.2 (≈ 99.9 µM)	62.5 (≈ 200 µM)	15.5 (≈ 49.6 µM)	62.5 (≈ 200 µM)	125 (≈ 400 µM)	31.2 (≈ 99.9 µM)	31.2 (≈ 99.9 µM)	125 (≈ 400 µM)	31.2 (≈ 99.9 µM)	50	–	–	–
COc1ccc2[nH]cc(Cc3c[nH]c4ccc(OC)cc34)c2c1	> 500	> 500	> 500	> 500	> 500	> 500	> 500	> 500	> 500	> 500	–	–	–	–
Cc1[nH]c2ccccc2c1Cc1c(C)[nH]c2ccccc12	> 500	> 500	> 500	> 500	> 500	> 500	> 500	> 500	> 500	> 500	–	–	–	–
OC[C@@H](O)[C@H](O)[C@H](O)[C@@H](O)C(c1c[nH]c2ccccc12)c1c[nH]c2ccccc12	> 500	> 500	> 500	> 500	> 500	> 500	> 500	> 500	> 500	> 500	–	–	–	–
CN[C@@H]1[C@H](O[C@H]2[C@H](O[C@H]3[C@H](O)[C@@H](O)[C@H](N=C(N)N)[C@@H](O)[C@@H]3N=C(N)N)O[C@@H](C)[C@]2(O)C=O)O[C@@H](CO)[C@H](O)[C@H]1O [STREPTOMYCIN]	6.25 (≈ 10.7 µM)	0.75 (≈ 1.29 µM)	1.5 (≈ 2.58 µM)	1.25 (≈ 2.15 µM)	6.25 (≈ 10.7 µM)	12.5 (≈ 21.5 µM)	0.75 (≈ 1.29 µM)	3.15 (≈ 5.42 µM)	1.5 (≈ 2.58 µM)	1.25 (≈ 2.15 µM)	–	–	–	–
OC[C@@H](O)[C@@H](O)[C@@H](O)C(c1c[nH]c2ccccc12)c1c[nH]c2ccccc12	31.2 (≈ 85.1 µM)	15.5 (≈ 42.3 µM)	62.5 (≈ 171 µM)	31.2 (≈ 85.1 µM)	62.5 (≈ 171 µM)	62.5 (≈ 171 µM)	62.5 (≈ 171 µM)	62.5 (≈ 171 µM)	125 (≈ 341 µM)	31.2 (≈ 85.1 µM)	–	–	–	15
c1cncc(C(c2c[nH]c3ccccc23)c2c[nH]c3ccccc23)c1	15.5 (≈ 47.9 µM)	6.5 (≈ 20.1 µM)	15.5 (≈ 47.9 µM)	31.2 (≈ 96.5 µM)	31.2 (≈ 96.5 µM)	32.2 (≈ 99.6 µM)	15.5 (≈ 47.9 µM)	31.2 (≈ 96.5 µM)	15.5 (≈ 47.9 µM)	15.5 (≈ 47.9 µM)	–	20	–	–
c1ccc2c(Cc3c[nH]c4ccccc34)c[nH]c2c1 [ARUNDINE]	125 (≈ 507 µM)	125 (≈ 507 µM)	500 (≈ 2030 µM)	125 (≈ 507 µM)	250 (≈ 1010 µM)	250 (≈ 1010 µM)	125 (≈ 507 µM)	250 (≈ 1010 µM)	250 (≈ 1010 µM)	250 (≈ 1010 µM)	–	20	–	–

More lines, main results first:

MIC [1] [µg/mL]	MIC [2] [µg/mL]	MIC [3] [µg/mL]	MIC [4] [µg/mL]	MIC [5] [µg/mL]	MIC [6] [µg/mL]	MIC [7] [µg/mL]	MIC [8] [µg/mL]	MIC [10] [µg/mL]	MIC [11] [µg/mL]	SMILES	hemolysis at 1 h, 12.5 ug/mL [9] [%]	hemolysis at 1 h [12] [%]	Activity ([13]; erythrocyte, 1 h)	hemolysis at 1 h ([13]; human red blood cells, read-out: Activity) [%]
> 500	> 500	> 500	> 500	> 500	> 500	> 500	> 500	> 500	> 500	c1ccc(-c2[nH]c3ccccc3c2Cc2c(-c3ccccc3)[nH]c3ccccc23)cc1	–	–	–	–
> 500	> 500	> 500	> 500	> 500	> 500	> 500	> 500	> 500	> 500	OC[C@@H](O)[C@@H](O)[C@H](O)[C@H](O)C(c1c[nH]c2ccccc12)c1c[nH]c2ccccc12	–	–	–	–
250 (≈ 692 µM)	31.2 (≈ 86.3 µM)	500 (≈ 1380 µM)	31.2 (≈ 86.3 µM)	125 (≈ 346 µM)	250 (≈ 692 µM)	125 (≈ 346 µM)	125 (≈ 346 µM)	250 (≈ 692 µM)	250 (≈ 692 µM)	c1ccc2c(C(c3c[nH]c4ccccc34)c3c[nH]c4ccccc34)c[nH]c2c1	–	20	Toxic	–
15.5 (≈ 45.8 µM)	7.5 (≈ 22.2 µM)	31.2 (≈ 92.2 µM)	6.5 (≈ 19.2 µM)	15.5 (≈ 45.8 µM)	15.5 (≈ 45.8 µM)	15.5 (≈ 45.8 µM)	62.5 (≈ 185 µM)	15.5 (≈ 45.8 µM)	15.5 (≈ 45.8 µM)	Oc1ccccc1C(c1c[nH]c2ccccc12)c1c[nH]c2ccccc12	–	20	–	–
> 500	> 500	> 500	> 500	> 500	> 500	> 500	> 500	> 500	> 500	CN(C)c1ccc(C(c2c[nH]c3ccccc23)c2c[nH]c3ccccc23)cc1	–	–	–	–
> 500	> 500	> 500	> 500	> 500	> 500	> 500	> 500	> 500	> 500	OC[C@@H](O)[C@@H](O)[C@H](O)[C@@H](O)C(c1c[nH]c2ccccc12)c1c[nH]c2ccccc12	–	–	–	–
